In patent publication US8680012B2, “4-phenyl-pyrane-3,5-diones,4-phenyl-thiopyrane-3,6-diones and cyclohexanetriones as novel herbicides” (Syngenta Crop Protection LLC, priority 2006, dated 2014):

Experiments:
Format in all cases: in vivo
Avena fatua (AVEFA) [1] = experiment: Example A post-emergence herbicidal activity, glasshouse pot test; settings: 360 h, rate 125 g/ha, evaluated 15 days after spraying, read-out: Post-emergence activity AVEFA (100=total damage to plant; 0=no damage to plant)
Experimental: (§1) Seeds of a variety of test species were sown in standard soil in pots. After cultivation for one day (pre-emergence) or after 10 days cultivation (post-emergence) under controlled conditions in a glasshouse, the plants were sprayed with an aqueous spray solution derived from the formulation of the technical active ingredient in 0.6 ml acetone and 45 ml formulation solution containing 10.6% Emulsogen EL (Registry number 61791-12-6), 42.2% N-methylpyrrolidone, 42.2% dipropylene glycol monomethyl ether (Registry number 34590-94-8) and 0.2% X-77 (Registry number 11097-66-8). The test plants were then grown in a greenhouse under optimum conditions until, 15 days later for post-emergence and 20 days for pre-emergence, the test was evaluated (100=total damage to plant; 0=no damage to plant).
(§2) Alopecurus myosuroides (ALOMY), Avena fatua (AVEFA), Lolium perenne (LOLPE), Setaria faberi (SETFA), Digitaria sanguinalis (DIGSA), Echinochloa crus-galli (ECHCG)

[2] = test system: Echinochloa crus-galli (ECHCG); experiment: as above; settings: 360 h, rate 125 g/ha, evaluated 15 days after spraying, read-out: Post-emergence activity ECHCG (100=total damage to plant; 0=no damage to plant)
Experimental: as §1, §2

[3] = test system: Digitaria sanguinalis (DIGSA); experiment: as above; settings: 360 h, rate 125 g/ha, evaluated 15 days after spraying, read-out: Post-emergence activity DIGSA (100=total damage to plant; 0=no damage to plant)
Experimental: as §1, §2

Setaria faberi (SETFA) [4] = experiment: as above; settings: 360 h, rate 125 g/ha, evaluated 15 days after spraying, read-out: Post-emergence activity SETFA (100=total damage to plant; 0=no damage to plant)
Experimental: as §1, §2

[5] = test system: Alopecurus myosuroides (ALOMY); experiment: as above; settings: 360 h, rate 125 g/ha, evaluated 15 days after spraying, read-out: Post-emergence activity ALOMY (100=total damage to plant; 0=no damage to plant)
Experimental: as §1, §2

Lolium perenne (LOLPE) [6] = experiment: as above; settings: 360 h, rate 125 g/ha, evaluated 15 days after spraying, read-out: Post-emergence activity LOLPE (100=total damage to plant; 0=no damage to plant)
Experimental: as §1, §2

Avena fatua (AVEFA) [7] = experiment: Example A pre-emergence herbicidal activity, glasshouse pot test; settings: 480 h, evaluated 20 days after spraying, read-out: Pre-emergence activity AVEFA (100=total damage to plant; 0=no damage to plant); for pest or weed control at 500 g/ha: rate 500 g/ha; for pest or weed control at 250 g/ha: rate 250 g/ha
Experimental: as §1, §2

[8] = test system: Echinochloa crus-galli (ECHCG); experiment: as above; settings: 480 h, evaluated 20 days after spraying, read-out: Pre-emergence activity ECHCG (100=total damage to plant; 0=no damage to plant); for pest or weed control at 500 g/ha: rate 500 g/ha; for pest or weed control at 250 g/ha: rate 250 g/ha
Experimental: as §1, §2

[9] = test system: Digitaria sanguinalis (DIGSA); experiment: as above; settings: 480 h, evaluated 20 days after spraying, read-out: Pre-emergence activity DIGSA (100=total damage to plant; 0=no damage to plant); for pest or weed control at 500 g/ha: rate 500 g/ha; for pest or weed control at 250 g/ha: rate 250 g/ha
Experimental: as §1, §2

Setaria faberi (SETFA) [10] = experiment: as above; settings: 480 h, evaluated 20 days after spraying, read-out: Pre-emergence activity SETFA (100=total damage to plant; 0=no damage to plant); for pest or weed control at 500 g/ha: rate 500 g/ha; for pest or weed control at 250 g/ha: rate 250 g/ha
Experimental: as §1, §2

[11] = test system: Alopecurus myosuroides (ALOMY); experiment: as above; settings: 480 h, evaluated 20 days after spraying, read-out: Pre-emergence activity ALOMY (100=total damage to plant; 0=no damage to plant); for pest or weed control at 500 g/ha: rate 500 g/ha; for pest or weed control at 250 g/ha: rate 250 g/ha
Experimental: as §1, §2

Lolium perenne (LOLPE) [12] = experiment: as above; settings: 480 h, evaluated 20 days after spraying, read-out: Pre-emergence activity LOLPE (100=total damage to plant; 0=no damage to plant); for pest or weed control at 500 g/ha: rate 500 g/ha; for pest or weed control at 250 g/ha: rate 250 g/ha
Experimental: as §1, §2

Row | SMILES | pest or weed control at 125 g/ha (Avena fatua (AVEFA) [1]) [%] | pest or weed control at 125 g/ha [2] [%] | pest or weed control at 125 g/ha [3] [%] | pest or weed control at 125 g/ha (Setaria faberi (SETFA) [4]) [%] | pest or weed control at 125 g/ha [5] [%] | pest or weed control at 125 g/ha (Lolium perenne (LOLPE) [6]) [%] | pest or weed control at 500 g/ha (Avena fatua (AVEFA) [7]) [%] | pest or weed control at 500 g/ha [8] [%] | pest or weed control at 500 g/ha [9] [%] | pest or weed control at 500 g/ha (Setaria faberi (SETFA) [10]) [%] | pest or weed control at 500 g/ha [11] [%] | pest or weed control at 500 g/ha (Lolium perenne (LOLPE) [12]) [%] | pest or weed control at 250 g/ha (Avena fatua (AVEFA) [7]) [%] | pest or weed control at 250 g/ha [8] [%] | pest or weed control at 250 g/ha [9] [%] | pest or weed control at 250 g/ha (Setaria faberi (SETFA) [10]) [%] | pest or weed control at 250 g/ha [11] [%] | pest or weed control at 250 g/ha (Lolium perenne (LOLPE) [12]) [%]
1 | Cc1ccc(-c2ccc(Cl)cc2)cc1C1=C(O)C(C)(C)OC(C)(C)C1=O [Compound A-5] | 70 | 100 | 100 | 80 | 70 | 70 | 50 | 100 | 100 | 100 | 60 | 50 | – | – | – | – | – | –
2 | CCc1ccc(-c2ccc(Cl)cc2)cc1C1=C(O)COCC1=O [Compound A-2] | 20 | 80 | 50 | 80 | 20 | 0 | 50 | 100 | 10 | 70 | 50 | 60 | – | – | – | – | – | –
3 | Cc1cc(-c2ccc(C)c(C3=C(O)C(C)(C)OC(C)(C)C3=O)c2)ccc1Cl [Compound A-53] | 10 | 90 | 50 | 0 | 30 | 10 | – | – | – | – | – | – | 0 | 10 | 60 | 10 | 10 | 0
4 | CCc1ccc(-c2ccc(Cl)cc2)cc1C1=C(O)C(C)(C)SC(C)(C)C1=O [Compound C-1] | 70 | 100 | 100 | 80 | 50 | 30 | 20 | 50 | 30 | 30 | 20 | 30 | – | – | – | – | – | –
5 | CCc1ccc(-c2ccc(Cl)cc2)cc1C1=C(O)C2(CCCC2)OCC1=O [Compound A-36] | 0 | 70 | 70 | 60 | 40 | 70 | – | – | – | – | – | – | 60 | 100 | 100 | 90 | 60 | 80
6 | CCc1ccc(-c2ccc(Cl)cc2Cl)cc1C1=C(O)C(C)(C)OC(C)(C)C1=O [Compound A-45] | 70 | 100 | 100 | 80 | 20 | 70 | – | – | – | – | – | – | 50 | 70 | 100 | 90 | 50 | 80
7 | CCc1ccc(-c2ccc(Cl)cc2)cc1C1=C(O)C(C)(CC)OC(C)(CC)C1=O (stereo not drawn) [Compound A-35] | 50 | 100 | 80 | 80 | 80 | 70 | – | – | – | – | – | – | 70 | 100 | 80 | 100 | 70 | 80
8 | CCc1ccc(-c2ccc(Cl)cc2)cc1C1=C(O)C(C)(C)[S+]([O-])C(C)(C)C1=O (stereo not drawn) [Compound C-2] | 70 | 100 | 90 | 90 | 70 | 60 | – | – | – | – | – | – | 10 | 100 | 100 | 70 | 10 | 10
9 | CCCCC(=O)OC1=C(c2cc(-c3ccc(Cl)cc3)ccc2CC)C(=O)C(C)(C)OC1(C)C [Compound D-2] | 10 | 90 | 90 | 90 | 20 | 20 | 60 | 80 | 100 | 100 | 30 | 80 | – | – | – | – | – | –
10 | CCc1ccc(-c2ccc(Cl)cc2)cc1C1=C(O)C(C)(C)S(=O)(=O)C(C)(C)C1=O [Compound C-3] | 80 | 100 | 100 | 90 | 70 | 50 | – | – | – | – | – | – | 80 | 70 | 90 | 60 | 60 | 10
11 | Cc1ccc(-c2ccc(Cl)c(Cl)c2)cc1C1=C(O)C(C)(C)OC(C)(C)C1=O [Compound A-48] | 40 | 40 | 40 | 40 | 70 | 0 | – | – | – | – | – | – | 10 | 100 | 60 | 60 | 30 | 0
12 | CCc1ccc(-c2ccc(Cl)cc2)cc1C1=C(O)C(C)(C)C(=O)C(C)(C)C1=O [Compound B-1] | 30 | 100 | 100 | 90 | 30 | 80 | 60 | 100 | 100 | 100 | 40 | 60 | – | – | – | – | – | –
